Measured values from patent publication US10344026B2, “Compositions and methods of targeting mutant K-ras” (NANTBIO, INC., priority 2017, dated 2019).

Assays:
Format in all cases: cell-based
[1] = system: Ishikawa (K-Ras wild type cell line); experiment: Viability assay (CellTiterBlue, 72 hr) Ishikawa; settings: Homo sapiens, GI50, CellTiterBlue, Ishikawa K-Ras wild-type
How it was run: (§1)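 Each line was plated at 1000 cells per well and incubated for 72 hr with compound after an 18 hr settling period. CellTiterBlue fluorescence measured the result, and GI50 was fitted relative to DMSO and tamoxifen controls.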

[2] = system: U87-MG (K-Ras wild type cell line); experiment: Viability assay (CellTiterBlue, 72 hr) U87-MG; settings: Homo sapiens, U-87 MG, GI50, CellTiterBlue, U87-MG K-Ras wild-type
How it was run: as §1

[3] = system: HCC827 (K-Ras wild type cell line); experiment: Viability assay (CellTiterBlue, 72 hr) HCC827; settings: Homo sapiens, GI50, CellTiterBlue, HCC827 K-Ras wild-type
How it was run: as §1

[4] = system: A375 (K-Ras wild type cell line); experiment: Viability assay (CellTiterBlue, 72 hr) A375; settings: Homo sapiens, A-375, GI50, CellTiterBlue
Procedure: Viability assays were performed on exemplary compounds and Table 2 below lists exemplary results for selected compounds tested on K-Ras wild type cell lines (Ishikawa, U87-MG, HCC827, and A375) and various K-Ras mutant cell lines (Panc1-G12D; Panc10.05-G12D; HCT116-G31D). Results are expressed in μM and corresponding structures are shown in FIGS. 2A-2G and Examples 1-152, above.
Cells are counted and seeded at 1000 cells/36 ul medium/well into 384-well microplates. Cells are returned to 37° C. CO2 incubator for 18 hr. Drug is made as 200× in DMSO and diluted into medium to 10×. To each well is added 4 ul 10× drug, and plates are returned to the incubator. Final assay DMSO concentration is 0.5%. After 72 hr, 8 ul CellTiterBlue (Promega) is added to each well. After 3 hr, fluorescence (Ex550/Em590) is determined on the Victor Plate Reader (Perkin Elmer). Assay range is determined by DMSO control (100% viability) and 100 uM tamoxifen (0% viability). GI50 values are calculated using Graphpad Prism.

Panc1-G12D = experiment: Viability assay (CellTiterBlue, 72 hr) Panc1; settings: Homo sapiens, PANC-1, GI50, CellTiterBlue, Panc1 K-Ras G12D, read-out: 72 hr Cell Viability Panc1 (G12D)
How it was run: as §1

Panc10.05-G12D = experiment: Viability assay (CellTiterBlue, 72 hr) Panc10.05; settings: Homo sapiens, Panc1005, GI50, CellTiterBlue, Panc10.05 K-Ras G12D, read-out: 72 hr Cell Viability Panc10.05 (G12D)
How it was run: as §1

HCT116-G31D = experiment: Viability assay (CellTiterBlue, 72 hr) HCT116; settings: Homo sapiens, HCT-116, GI50, CellTiterBlue, HCT116 K-Ras G13D, read-out: 72 hr Cell Viability HCT116 (G13D)
How it was run: as §1

[5] = system: phospho-ERK in HCC827 (Wild-type); experiment: In-Cell Western phospho-ERK, HCC827; settings: Homo sapiens, 1 h; HCC827, one hour treatment; read-out: In-Cell Western HCC827 (Wild-type) Erk (P)
Procedure: (§2) In-cell phosphorylation assays for Erk and Akt were performed on several of the compounds and exemplary results are shown in Table 3 below using HCC827 and A375 cell lines for wild type K-Ras and Panc1 and Panc10.05 cell lines for G12D K-Ras mutants. Results are expressed in μM and corresponding structures are shown in FIGS. 2A-2G and Examples 1-152, above.
(§3) Cells are seeded in complete medium into black sided, clear-bottom 384-well microplates at 3000 cells/[…]/well. Plates are returned to 37° C. CO2 incubator for 18 hr. Drug is made as 200× in DMSO and diluted into medium to 10×. To each well is added 4 ul 10× test article or controls, and plates are returned to the incubator. Final assay DMSO concentration is 0.5%. After one hour, cells are fixed in formaldehyde, rinsed & permeabilized with triton X-100, and blocked with BSA/Goat serum blocking solution. Primary phospho-Akt and phospho-ERK antibodies are added and plates are incubated overnight at 4° C. Plates are rinsed with Tween-20 wash buffer and secondary antibody (Goat anti-rabbit, Thermofisher) is added. After 2 hours, plates are rinsed in Tween-20 wash buffer, and then PBS. Plates are imaged on the Celigo (Nexcelom) and cellular fluorescence is quantitated. Full inhibition of phospho-Akt is achieved with 1 uM BEZ235 (Sellekchem), while full inhibition of phospho-ERK is achieved with 1 uM MEK Inhibitor II Calbiochem). EC50 values are calculated using Graphpad Prism.

[6] = system: phospho-ERK in A375 (Wild-type); experiment: In-Cell Western phospho-ERK, A375; settings: Homo sapiens, A-375, 1 h; A375, one hour treatment; read-out: In-Cell Western A375 (Wild-type) Erk (P)
Procedure: as §2, §3

[7] = system: phospho-Akt in A375 (Wild-type); experiment: In-Cell Western phospho-Akt, A375; settings: Homo sapiens, A-375, 1 h; A375, one hour treatment; read-out: In-Cell Western A375 (Wild-type) Akt (P)
Procedure: as §2, §3

[8] = system: phospho-ERK in Panc1 (G12D); experiment: In-Cell Western phospho-ERK, Panc1; settings: Homo sapiens, PANC-1, 1 h; Panc1, one hour treatment; read-out: In-Cell Western Panc1 (G12D) Erk (P)
How it was run: (§4)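 Following an 18 hr settle at 37° C, seeded cells receive test compound for 1 hr before fixation and staining with phospho-Akt and phospho-ERK primary antibodies (overnight, 4° C) plus a goat anti-rabbit secondary. Plates are imaged and fluorescence quantitated to give EC50.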

[9] = system: phospho-Akt in Panc1 (G12D); experiment: In-Cell Western phospho-Akt, Panc1; settings: Homo sapiens, PANC-1, 1 h; Panc1, one hour treatment; read-out: In-Cell Western Panc1 (G12D) Akt (P)
How it was run: as §4

[10] = system: phospho-ERK in Panc10.05 (G12D); experiment: In-Cell Western phospho-ERK, Panc10.05; settings: Homo sapiens, Panc1005, 1 h; Panc10.05, one hour treatment; read-out: In-Cell Western Panc10.05 (G12D) Erk (P)
How it was run: as §4

[11] = system: phospho-Akt in Panc10.05 (G12D); experiment: In-Cell Western phospho-Akt, Panc10.05; settings: Homo sapiens, Panc1005, 1 h; Panc10.05, one hour treatment; read-out: In-Cell Western Panc10.05 (G12D) Akt (P)
Procedure: as §2, §3

Row | SMILES | IC50 [1] [µM] | IC50 [2] [µM] | IC50 [3] [µM] | IC50 [4] [µM] | IC50 (Panc1-G12D) [µM] | IC50 (Panc10.05-G12D) [µM] | IC50 (HCT116-G31D) [µM] | EC50 [5] [µM] | EC50 [6] [µM] | EC50 [7] [µM] | EC50 [8] [µM] | EC50 [9] [µM] | EC50 [10] [µM] | EC50 [11] [µM]
1 | CCc1nc(C)c(C(=O)Nc2nc(-c3ccc4c(c3)CCC(=O)N4Cc3cncnc3)cs2)o1 [Compound 104, 2-ethyl-4-methyl-N-(4-(2-oxo-1-(pyrimidin-5-ylmethyl)-1,2,3,4-tetrahydroquinolin-6-yl)thiazol-2-yl)oxazole-5-carboxamide] | > 25 | > 25 | > 25 | 6 | 22 | 17 | 5 | > 25 | > 25 | > 25 | > 25 | > 25 | > 25 | > 25
2 | Cc1nc(C(=O)Nc2nc(-c3ccc4c(c3)CCC(=O)N4)cs2)c(C)s1 [Compound 20, 2,5-dimethyl-N-(4-(2-oxo-1,2,3,4-tetrahydroquinolin-6-yl)thiazol-2-yl)thiazole-4-carboxamide] | > 25 | > 25 | > 25 | > 25 | > 25 | > 25 | > 25 | > 25 | > 25 | > 25 | > 25 | > 25 | > 25 | > 25
3 | Cn1nc(C(F)(F)F)cc1C(=O)Nc1nc(-c2ccc3c(c2)CCC(=O)N3)cs1 [Compound 50, 1-methyl-N-(4-(2-oxo-1,2,3,4-tetrahydroquinolin-6-yl)thiazol-2-yl)-3-(trifluoromethyl)-1H-pyrazole-5-carboxamide] | > 25 | > 25 | > 25 | > 25 | > 25 | > 25 | > 25 | 13 | > 25 | > 25 | > 25 | > 25 | > 25 | > 25
4 | Cc1nc(C)c(C(=O)Nc2nc(-c3ccc4c(c3)CCC(=O)N4CCCN(C)C)cs2)o1 [Compound 98, N-(4-(1-(3-(dimethylamino)propyl)-2-oxo-1,2,3,4-tetrahydroquinolin-6-yl)thiazol-2-yl)-2,4-dimethyloxazole-5-carboxamide] | 11 | > 25 | 5 | 9 | 13 | > 25 | > 25 | > 25 | > 25 | > 25 | > 25 | > 25 | > 25 | > 25
5 | O=C1CCc2cc(-c3csc(NC(=O)c4ccnn4-c4ccccc4)n3)ccc2N1 [Compound 47, N-(4-(2-oxo-1,2,3,4-tetrahydroquinolin-6-yl)thiazol-2-yl)-1-phenyl-1H-pyrazole-5-carboxamide] | > 25 | > 25 | > 25 | > 25 | > 25 | > 25 | > 25 | > 25 | > 25 | > 25 | > 25 | > 25 | > 25 | > 25
6 | Cn1nc(-c2ccccc2)cc1C(=O)Nc1nc(-c2ccc3c(c2)CCC(=O)N3)cs1 [Compound 48, 1-methyl-N-(4-(2-oxo-1,2,3,4-tetrahydroquinolin-6-yl)thiazol-2-yl)-3-phenyl-1H-pyrazole-5-carboxamide] | > 25 | > 25 | > 25 | > 25 | > 25 | > 25 | > 25 | > 25 | > 25 | > 25 | > 25 | > 25 | > 25 | > 25
